# Paper PMC12475007 (2025)
# Experiments:
# Assay in all cases: fluorescence bead binding assay
# Conditions in all cases: binding buffer, room temperature, 1 h; immobilised compound (on beads)
# [1] = system: P5 (DNA, aptamer) ACATGTGTAGGCGGTTGGATGCATTATGAGATGGGACATG
# [2] = system: P3 (DNA, aptamer) CCAAGCATCGTCACATCACATTATCACACATTGTCGTCCGT
# [3] = system: P2 (DNA, aptamer) AGACGTGATGAAGTTCAATCAGGATGCAATGTATTAATGG
# [4] = system: P4 (DNA, aptamer) TGTGCATTCGTGTGAATTAACTCGTCCACCAGAGCCCGTG
# [5] = system: P1 (DNA, aptamer) TGCGGAGCGAGGCCCTAGGCGTGGTGGCATTGATTTGTAT
# [6] = system: L4 (DNA, aptamer) TAAGCCCGGCTGAGATAACGGTTGATCCGAAGCTGGTTTT
# [7] = system: L3 (DNA, aptamer) CACACATACGGGAGAGGCCCCATAAACTCATGCACGTCCTG
# [8] = system: L2 (DNA, aptamer) CCCATCACCACATTGTCACATCACTCGTCACATACAGCCCG
# [9] = system: L1 (DNA, aptamer) CAGTCTGCGCCGATTTCTCGCGGATTGCGACGAGGATACG
Compound,Kd [1] [µM],Kd [2] [µM],Kd [3] [µM],Kd [4] [µM],Kd [5] [µM],Kd [6] [µM],Kd [7] [µM],Kd [8] [µM],Kd [9] [µM]
CC(=O)O[C@H]1C(=O)[C@@]2(C)[C@H]([C@H](OC(=O)c3ccccc3)[C@]3(O)C[C@H](OC(=O)[C@H](O)[C@@H](NC(=O)c4ccccc4)c4ccccc4)C(C)=C1C3(C)C)[C@]1(OC(C)=O)CO[C@@H]1C[C@@H]2O,0.05407,0.03802,0.4842,0.2081,0.1392,,,,
Nc1nc(=O)c2c([nH]1)NC[C@@H](CNc1ccc(C(=O)N[C@@H](CCC(=O)O)C(=O)O)cc1)N2C=O,,,,,,0.2857,0.2257,0.2842,0.1257
